This note sets out measurements from patent US9682953B2, “Amide compounds, compositions and applications thereof” (Advinus Therapeutics Limited, priority 2011, dated 2017).

Experiment [1] addresses rat Fatty Acid Amide Hydrolase (FAAH) (Rattus norvegicus (Rat), UniProt P97612). Description: FAAH in vitro fluorescence assay (AAMCA hydrolysis), rat enzyme. The settings on record: for inhibition at 10 µM: read-out: rFAAH % inhibition at 10 uM; for inhibition at 0.1 µM: read-out: rFAAH % inhibition at 100 nM. It counts as biochemical. On the procedure: Material and Reagents: All reagents were purchased from Sigma-Aldrich unless specified. […] Chaperone protein groEL-groES in pGRO7 plasmid (Takara Bio Inc, Japan) was co-expressed with Fatty Acid Amide Hydrolase (FAAH) to improve solubility of the protein expressed in E coli. […] Briefly, the bacterial cultures in Luria Broth (2 L) were induced with arabinose (2 mM) and Isopropyl (β-D-1-thiogalactopyranoside, IPTG (1 mM), for 20 h at room temperature. The cultures were centrifuged at 1200×g for 10 min and the cell pellet was resuspended in 100 mL buffer containing of 20 mM NaPi (pH 7.4), 100 mM NaCl, Benzonase (500u), Aprotinin (1 μg/mL) and Leupeptin (1 μg/mL). Cells were lyzed by sonication (Amp 20%, Pulse 15 s×15, on ice) and the cell debris removed by centrifugation at 5000×g for 20 min. The supernatant was enriched via ultracentrifugation at 100,000×g for 1 h and the cell pellet was resuspended in 16 mL buffer containing 20 mM NaPi (pH 7.8), 500 mM NaCl, 1% Triton X-100. The resuspended cell extract was subjected to ultra-centrifugation at 100,000×g for 1 h and the enriched supernatant was used in the in vitro assay. All protein extraction steps were carried out on ice or at 4° C.
The assay was carried out in 200 μL volume in a 96-well black polystyrene plate (Greiner Bio-one, Germany). Each reaction consisted of human Fatty Acid Amide Hydrolase (FAAH) protein and 10 μM AAMCA in assay buffer containing 50 mM HEPES, 1 mM EDTA and 0.1% BSA, pH 7.4. The reaction was incubated with 2 μL of varying concentrations of inhibitor in DMSO (final concentration of DMSO 1%) with shaking for 1 min and monitored for increase in fluorescence in kinetic mode for 50 min. […] Rate of reaction as a function of the concentration of the inhibitor was used to determine the IC50 of the inhibitors. Data was analyzed using GraphPad Prism 5 (GraphPad Software Inc., San Diego, Calif.). The activity of the compounds for rat Fatty Acid Amide Hydrolase (FAAH) was evaluated as described above with rat Fatty Acid Amide Hydrolase (FAAH) protein and 10 μM AAMCA substrate.

In experiment [2] the target is human Fatty Acid Amide Hydrolase (FAAH) (Homo sapiens (Human), UniProt O00519). The experiment is described as follows: biochemical. The settings on record: for inhibition at 0.1 µM: read-out: hFAAH % inhibition at 100 nM, 100 nM (tier I).
human Fatty Acid Amide Hydrolase (FAAH), sequence (O00519 30-579): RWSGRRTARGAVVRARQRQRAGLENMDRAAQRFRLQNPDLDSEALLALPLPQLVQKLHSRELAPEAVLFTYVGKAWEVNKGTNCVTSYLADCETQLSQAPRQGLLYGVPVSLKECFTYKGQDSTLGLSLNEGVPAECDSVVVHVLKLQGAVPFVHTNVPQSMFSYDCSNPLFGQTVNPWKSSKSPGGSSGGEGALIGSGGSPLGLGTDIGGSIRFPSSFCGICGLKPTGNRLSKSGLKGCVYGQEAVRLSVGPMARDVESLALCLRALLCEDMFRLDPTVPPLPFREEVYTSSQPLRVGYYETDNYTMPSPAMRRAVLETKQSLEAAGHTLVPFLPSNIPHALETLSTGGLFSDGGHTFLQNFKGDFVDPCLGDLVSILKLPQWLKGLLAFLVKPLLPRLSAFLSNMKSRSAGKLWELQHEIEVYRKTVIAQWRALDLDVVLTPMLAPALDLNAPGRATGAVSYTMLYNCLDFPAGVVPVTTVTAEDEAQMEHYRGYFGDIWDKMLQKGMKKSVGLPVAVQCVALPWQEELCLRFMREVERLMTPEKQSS
The mark [3] stands for this setting: human FAAH, read-out: hFAAH IC50.

Like-named read-outs stand apart in the source and are kept apart here.

rat Fatty Acid Amide Hydrolase (FAAH), sequence (P97612 30-579): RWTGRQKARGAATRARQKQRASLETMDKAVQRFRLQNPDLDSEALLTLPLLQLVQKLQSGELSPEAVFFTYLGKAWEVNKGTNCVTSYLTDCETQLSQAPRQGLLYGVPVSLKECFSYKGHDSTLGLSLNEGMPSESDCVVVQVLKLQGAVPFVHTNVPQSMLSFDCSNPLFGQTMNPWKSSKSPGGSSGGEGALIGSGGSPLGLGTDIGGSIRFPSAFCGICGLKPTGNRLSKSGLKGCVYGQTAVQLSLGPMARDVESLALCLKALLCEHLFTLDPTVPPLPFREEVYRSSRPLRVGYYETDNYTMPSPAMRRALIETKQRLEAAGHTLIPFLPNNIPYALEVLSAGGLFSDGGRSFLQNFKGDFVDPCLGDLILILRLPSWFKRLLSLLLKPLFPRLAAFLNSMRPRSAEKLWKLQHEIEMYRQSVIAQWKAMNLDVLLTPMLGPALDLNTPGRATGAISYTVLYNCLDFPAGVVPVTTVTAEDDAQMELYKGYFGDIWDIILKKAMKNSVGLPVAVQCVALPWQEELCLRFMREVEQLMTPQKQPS

As for `O=C(NC1CCC(=Cc2cccc(Oc3ccc(C(F)(F)F)cn3)c2)CC1)c1c[nH]nc1C(F)(F)F` (centres unmarked) [Example 2.A-29, 3-(Trifluoromethyl)-N-[4-[[3-[[5-(trifluoromethyl)-2-pyridyl]oxy]phenyl]methylene]cyclohexyl]-1H-pyrazole-4-carboxamide], the IC50 came to 24 nM in experiment [1] (rat FAAH, read-out: rFAAH IC50) and 3 nM in experiment [2] (read-out: hFAAH IC50).

On to `O=C(NC1CCC(=Cc2cccc(Oc3ccc(C(F)(F)F)cn3)c2)CC1)c1ccc(-n2ccnn2)nc1` (centres unmarked) [Example 2.B-14, 6-(Triazol-1-yl)-N-[4-[[3-[[5-(trifluoromethyl)-2-pyridyl]oxy]phenyl]methylene]cyclohexyl]pyridine-3-carboxamide], for which the IC50 in experiment [1] (rat FAAH, read-out: rFAAH IC50) worked out at 11 nM; in experiment [2] (read-out: hFAAH IC50), 2 nM.

For the compound `O=C(NC1CCC(=Cc2cccc(Oc3ccc(C(F)(F)F)cn3)c2)CC1)c1cn[nH]c1` (single isomer, unassigned; (+)) [Example 20.A-11, (+)-N-[4-[[3-[[5-(trifluoromethyl)-2-pyridyl]oxy]phenyl]methylene]cyclohexyl]-1H-pyrazole-4-carboxamide], the inhibition at 10 µM in experiment [1] (rat FAAH) was found to be 86%. Further, the half-inhibitory concentration (IC50) in experiment [2] (setting [3]) came to 78 nM.

As for `O=C(NC1CCC(=Cc2cccc(Oc3ccc(C(F)(F)F)cn3)c2)CC1)c1c[nH]c2ccccc12` (single isomer, unassigned; (+)) [Example 20.A-17, (+)-N-[4-[[3-[[5-(trifluoromethyl)-2-pyridyl]oxy]phenyl]methylene]cyclohexyl]-1H-indole-3-carboxamide], in experiment [1] (rat FAAH), the inhibition at 10 µM is 90%. In addition, the IC50 in experiment [2] (read-out: hFAAH IC50) worked out at 155 nM.

With `O=C(NC1CCC(=Cc2cccc(Oc3ccc(C(F)(F)F)cn3)c2)CC1)c1ccc(-n2cc(Cl)cn2)nc1` (centres unmarked) [Example 2.B-8, 6-(4-Chloropyrazol-1-yl)-N-[4-[[3-[[5-(trifluoromethyl)-2-pyridyl]oxy]phenyl]methylene]cyclohexyl]pyridine-3-carboxamide], the IC50 in experiment [1] (rat FAAH, read-out: rFAAH IC50) is 21 nM; in experiment [2] (setting [3]) it was 5 nM.

Take `O=C(NC1CCC(=Cc2cccc(Oc3ccc(C(F)(F)F)cn3)c2)CC1)c1ccc(-c2nnn[nH]2)nc1` (centres unmarked) [Example 11.1, 6-(1H-Tetrazol-5-yl)-N-[4-[[3-[[5-(trifluoromethyl)-2-pyridyl]oxy]-phenyl]methylene]cyclohexyl]pyridine-3-carboxamide]: the inhibition at 0.1 µM in experiment [1] (rat FAAH, 100 nM (tier I)) stood at 50%. In addition, the IC50 in experiment [2] (read-out: hFAAH IC50) is 12 nM.

As for `COc1ccc(C(=O)NC2CCC(=Cc3cccc(Oc4ccc(C(F)(F)F)cn4)c3)CC2)cn1` (centres unmarked) [Example 2.C-2, 6-Methoxy-N-[4-[[3-[[5-(trifluoromethyl)-2-pyridyl]oxy]phenyl]methylene]cyclohexyl]pyridine-3-carboxamide], the IC50 in experiment [1] (rat FAAH, read-out: rFAAH IC50) came to 21 nM; in experiment [2] (read-out: hFAAH IC50), 5 nM.

With `Cc1cncc(C(=O)NC2CCC(=Cc3cccc(Oc4ccc(C(F)(F)F)cn4)c3)CC2)c1` (centres unmarked) [Example 2.A-30, 5-Methyl-N-[4-[[3-[[5-(trifluoromethyl)-2-pyridyl]oxy]phenyl]methylene]cyclohexyl]pyridine-3-carboxamide], the IC50 in experiment [1] (rat FAAH, read-out: rFAAH IC50) is 14 nM; in experiment [2] (read-out: hFAAH IC50), 5 nM.

`O=C(NC1CCC(=Cc2cccc(Oc3ccc(C(F)(F)F)cn3)c2)CC1)c1cnccn1` (centres unmarked) [Example 2.A-5, N-[4-[[3-[[5-(Trifluoromethyl)-2-pyridyl]oxy]phenyl]methylene]cyclohexyl]pyrazine-2-carboxamide]: the inhibition at 0.1 µM in experiment [1] (rat FAAH, 100 nM (tier I)) stood at 27%. Also, in experiment [2] (setting [3]), the IC50 was 9 nM.

Regarding `O=C(Nc1cnccn1)C1CCC(=Cc2cccc(Oc3ccc(C(F)(F)F)cn3)c2)CC1` (centres unmarked) [Example 1.A-3, N-Pyrazin-2-yl-4-[[3-[[5-(trifluoromethyl)-2-pyridyl]oxy]phenyl]methylene]cyclohexanecarboxamide], the IC50 in experiment [1] (rat FAAH, read-out: rFAAH IC50) turned out to be 44 nM; in experiment [2] (setting [3]), 9 nM.

As for `Nc1cc(C(=O)NC2CCC(=Cc3cccc(Oc4ccc(C(F)(F)F)cn4)c3)CC2)cnc1Cl` (centres unmarked) [Example 10.1, 5-Amino-6-chloro-N-[4-[[3-[[5-(trifluoromethyl)-2-pyridyl]oxy]-phenyl]methylene]cyclohexyl]pyridine-3-carboxamide], the figures for the IC50 in experiment [1] and in experiment [2] (hFAAH IC50) were 6 nM and 1 nM, respectively.

On to `Cc1ccc(C(=O)NC2CCC(=Cc3cccc(Oc4ccc(C(F)(F)F)cn4)c3)CC2)c(C)n1` (centres unmarked) [Example 2.A-37, 2,6-Dimethyl-N-[4-[[3-[[5-(trifluoromethyl)-2-pyridyl]oxy]phenyl]methylene]cyclohexyl]pyridine-3-carboxamide], for which, in experiment [1] (rat FAAH, 100 nM (tier I)), the “rFAAH % inhibition at 100 nM” value is “No inhibition at 100 nM”. The IC50 in experiment [2] (setting [3]) amounted to 57 nM.

`O=C(NC1CCC(=Cc2cccc(Oc3ccc(C(F)(F)F)cn3)c2)CC1)c1ncccn1` (centres unmarked) [Example 2.A-16, N-[4-[[3-[[5-(Trifluoromethyl)-2-pyridyl]oxy]phenyl]methylene]cyclohexyl]pyrimidine-2-carboxamide]: in experiment [1] (rat FAAH, 100 nM (tier I)), the inhibition at 0.1 µM stood at 38%. The IC50 in experiment [2] (setting [3]) stood at 15 nM.

Turning to `O=C(Nc1ncc(Cl)s1)C1CCC(=Cc2cccc(Oc3ccc(C(F)(F)F)cn3)c2)CC1` (centres unmarked) [Example 1.1, N-(5-Chlorothiazol-2-yl)-4-[[3-[[5-(trifluoromethyl)-2-pyridyl]oxy]phenyl]methylene]cyclohexanecarboxamide], the IC50 in experiment [1] (rat FAAH, read-out: rFAAH IC50) was found to be 60 nM; in experiment [2] (setting [3]), 16 nM.

In the case of `O=C(NC1CCC(=Cc2cccc(Oc3ccc(C(F)(F)F)cn3)c2)CC1)c1ccnnc1` (centres unmarked) [Example 2.A-17, N-[4-[[3-[[5-(Trifluoromethyl)-2-pyridyl]oxy]phenyl]methylene]cyclohexyl]pyridazine-4-carboxamide], the inhibition at 0.1 µM in experiment [1] (rat FAAH, 100 nM (tier I)) is 14%. The IC50 in experiment [2] (setting [3]) came to 10 nM.

Regarding `O=C(NC1CCC(=Cc2cccc(Oc3ccc(C(F)(F)F)cn3)c2)CC1)c1c[nH]nc1C(F)(F)F` (single isomer, unassigned; (+)) [Example 20.A-7, (+)-3-(Trifluoromethyl)-N-[4-[[3-[[5-(trifluoromethyl)-2-pyridyl]oxy]phenyl]methylene]cyclohexyl]-1H-pyrazole-4-carboxamide], the inhibition at 10 µM in experiment [1] (rat FAAH) is 85%. The IC50 in experiment [2] (read-out: hFAAH IC50) amounted to 67 nM.

As to `O=C(NC1CCC(=Cc2cccc(Oc3ccc(C(F)(F)F)cn3)c2)CC1)c1cncc(Cl)c1` (centres unmarked) [Example 2.A-32, 5-Chloro-N-[4-[[3-[[5-(trifluoromethyl)-2-pyridyl]oxy]phenyl]methylene]cyclohexyl]pyridine-3-carboxamide], the inhibition at 0.1 µM in experiment [1] (rat FAAH, 100 nM (tier I)) was determined as 40%. For the same compound, the half-maximal inhibitory concentration (IC50) in experiment [2] (setting [3]) was found to be 6 nM.

As for `O=C(O)Cn1cc(-c2ccc(C(=O)NC3CCC(=Cc4cccc(Oc5ccc(C(F)(F)F)cn5)c4)CC3)cn2)cn1` (centres unmarked) [Example 8.A-1, 2-[4-[5-[[4-[[3-[[5-(Trifluoromethyl)-2-pyridyl]oxy]phenyl]methylene]cyclohexyl]carbamoyl]-2-pyridyl]pyrazol-1-yl]acetic acid], the inhibition at 0.1 µM in experiment [1] (rat FAAH, 100 nM (tier I)) was determined as 15%; in experiment [2] (human FAAH) it was 72%.

Turning to `O=C(NC1CCC(=Cc2cccc(Oc3ccc(C(F)(F)F)cn3)c2)CC1)c1cn[nH]c1` (centres unmarked) [Example 2.A-9, N-[4-[[3-[[5-(Trifluoromethyl)-2-pyridyl]oxy]phenyl]methylene]cyclohexyl]-1H-pyrazole-4-carboxamide], the IC50 is 53 nM in experiment [1] (rat FAAH, read-out: rFAAH IC50) and 2 nM in experiment [2] (setting [3]).

On to `Cn1cc(C(=O)NC2CCC(=Cc3cccc(Oc4ccc(C(F)(F)F)cn4)c3)CC2)cn1` (centres unmarked) [Example 2.A-18, 1-Methyl-N-[4-[[3-[[5-(trifluoromethyl)-2-pyridyl]oxy]phenyl]methylene]cyclohexyl]pyrazole-4-carboxamide], for which the inhibition at 0.1 µM was determined as 38% in experiment [1] (rat FAAH, 100 nM (tier I)) and 45% in experiment [2] (human FAAH).

For `Nc1ncc(C(=O)NC2CCC(=Cc3cccc(Oc4ccc(C(F)(F)F)cn4)c3)CC2)cn1` (centres unmarked) [Example 2.C-6, 2-Amino-N-[4-[[3-[[5-(trifluoromethyl)-2-pyridyl]oxy]phenyl]methylene]cyclohexyl]pyrimidine-5-carboxamide], the IC50 is 16 nM in experiment [1] (rat FAAH, read-out: rFAAH IC50) and 1 nM in experiment [2] (read-out: hFAAH IC50).

For the compound `CCc1nc(Oc2cccc(C=C3CCC(NC(=O)c4ccc(N)nc4)CC3)c2)ccc1C(F)(F)F` (centres unmarked) [Example 2.E-24, 6-Amino-N-[4-[[3-[[6-ethyl-5-(trifluoromethyl)-2-pyridyl]oxy]phenyl]methylene]cyclohexyl]pyridine-3-carboxamide], the inhibition at 0.1 µM in experiment [1] (rat FAAH, 100 nM (tier I)) was 47%. Also, the IC50 in experiment [2] (setting [3]) turned out to be 34 nM.

Usually IC50 stands for the concentration at which inhibition is half-maximal. One may read the inhibition as the drop in the measured response relative to a control, in per cent.
